Patent publication US9982007B2, “Cocrystals of progesterone” (AMRI SSCI, LLC, priority 2012, dated 2018)

Experiment: Powder dissolution
Type: physicochemical
Conditions: compared to commercially available progesterone

In the case of “progesterone:vanillic acid [Cocrystal 1]”, the dissolution rate is reported as “increase in dissolution rate” and the “progesterone concentration over time” value is reported as “sustained progesterone concentration over time”.
